# Like-named read-outs stand apart in the source and are kept apart here.
# Assays:
# Experiment in all cases: biochemical
# Design in all cases: Eurofins KinaseProfiler full panel at Km ATP, residual kinase activity (%) relative to DMSO
# [1] = molecular target: CDK1/cyclinB(h) (Homo sapiens, UniProt P06493)
# Summary of the method: (§1)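 Two 10 µM single-concentration screens were run: a competition-binding screen, in which DNA-tagged kinase bound to immobilized ligands was quantified by qPCR, and a radiometric activity panel at Km ATP. Each is expressed as residual kinase activity (%).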
# [2] = molecular target: T1, CK1α(h) (Homo sapiens, UniProt P48729)
# T1 construct: gene CSNK1A1
# T1 sequence (P48729 whole entry): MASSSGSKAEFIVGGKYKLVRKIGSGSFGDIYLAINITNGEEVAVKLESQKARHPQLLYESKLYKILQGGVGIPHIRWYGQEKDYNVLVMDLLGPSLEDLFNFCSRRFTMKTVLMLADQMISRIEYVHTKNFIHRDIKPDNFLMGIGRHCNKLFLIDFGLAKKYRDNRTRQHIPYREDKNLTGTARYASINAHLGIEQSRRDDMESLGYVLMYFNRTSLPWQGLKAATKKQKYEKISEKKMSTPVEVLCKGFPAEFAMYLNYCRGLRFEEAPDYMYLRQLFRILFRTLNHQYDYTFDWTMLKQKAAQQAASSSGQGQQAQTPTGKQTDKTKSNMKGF
# Summary of the method: as §1
# [3] = molecular target: T2, MEKK2(h) (Homo sapiens, UniProt Q9Y2U5)
# T2 construct: gene MAP3K2
# T2 sequence (Q9Y2U5 1-619): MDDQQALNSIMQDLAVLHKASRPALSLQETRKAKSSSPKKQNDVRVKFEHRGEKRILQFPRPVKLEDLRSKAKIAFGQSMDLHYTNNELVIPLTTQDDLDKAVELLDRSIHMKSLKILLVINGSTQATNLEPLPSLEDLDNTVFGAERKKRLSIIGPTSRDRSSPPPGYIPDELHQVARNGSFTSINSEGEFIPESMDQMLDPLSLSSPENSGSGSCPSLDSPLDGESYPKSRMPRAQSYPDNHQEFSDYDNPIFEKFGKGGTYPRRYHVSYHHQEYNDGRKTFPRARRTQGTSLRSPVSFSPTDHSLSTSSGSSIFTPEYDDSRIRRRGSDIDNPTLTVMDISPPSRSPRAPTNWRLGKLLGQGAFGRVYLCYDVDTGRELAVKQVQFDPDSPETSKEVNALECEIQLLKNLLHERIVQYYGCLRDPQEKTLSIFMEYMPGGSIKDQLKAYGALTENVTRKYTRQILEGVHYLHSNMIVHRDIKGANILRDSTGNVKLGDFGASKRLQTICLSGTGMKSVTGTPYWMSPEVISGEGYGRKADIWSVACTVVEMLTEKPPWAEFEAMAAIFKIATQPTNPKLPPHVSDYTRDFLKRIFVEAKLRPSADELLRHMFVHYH
# Summary of the method: as §1
# [4] = molecular target: T3, NDR2(h) (Homo sapiens, UniProt Q9Y2H1)
# T3 construct: gene STK38L
# T3 sequence (Q9Y2H1 whole entry): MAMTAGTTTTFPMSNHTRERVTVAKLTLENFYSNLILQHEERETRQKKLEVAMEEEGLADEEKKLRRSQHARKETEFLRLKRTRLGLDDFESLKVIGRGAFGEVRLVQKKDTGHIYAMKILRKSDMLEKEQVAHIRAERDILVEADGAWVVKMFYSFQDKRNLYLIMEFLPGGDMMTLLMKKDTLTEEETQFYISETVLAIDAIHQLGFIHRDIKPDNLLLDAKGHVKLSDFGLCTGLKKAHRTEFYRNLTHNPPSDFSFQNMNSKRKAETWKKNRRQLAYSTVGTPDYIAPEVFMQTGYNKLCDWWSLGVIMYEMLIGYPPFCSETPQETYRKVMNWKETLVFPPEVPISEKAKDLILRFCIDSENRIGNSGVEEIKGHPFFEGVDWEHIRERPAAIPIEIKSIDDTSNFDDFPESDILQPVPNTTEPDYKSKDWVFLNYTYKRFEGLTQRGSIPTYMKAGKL
# Summary of the method: as §1
# [5] = molecular target: T4, PI3 Kinase (p110a(H1047R)/p85a)(h) (Homo sapiens, UniProt P42336, H1047R)
# T4 construct: gene PIK3CA
# T4 sequence (P42336 whole entry H1047R): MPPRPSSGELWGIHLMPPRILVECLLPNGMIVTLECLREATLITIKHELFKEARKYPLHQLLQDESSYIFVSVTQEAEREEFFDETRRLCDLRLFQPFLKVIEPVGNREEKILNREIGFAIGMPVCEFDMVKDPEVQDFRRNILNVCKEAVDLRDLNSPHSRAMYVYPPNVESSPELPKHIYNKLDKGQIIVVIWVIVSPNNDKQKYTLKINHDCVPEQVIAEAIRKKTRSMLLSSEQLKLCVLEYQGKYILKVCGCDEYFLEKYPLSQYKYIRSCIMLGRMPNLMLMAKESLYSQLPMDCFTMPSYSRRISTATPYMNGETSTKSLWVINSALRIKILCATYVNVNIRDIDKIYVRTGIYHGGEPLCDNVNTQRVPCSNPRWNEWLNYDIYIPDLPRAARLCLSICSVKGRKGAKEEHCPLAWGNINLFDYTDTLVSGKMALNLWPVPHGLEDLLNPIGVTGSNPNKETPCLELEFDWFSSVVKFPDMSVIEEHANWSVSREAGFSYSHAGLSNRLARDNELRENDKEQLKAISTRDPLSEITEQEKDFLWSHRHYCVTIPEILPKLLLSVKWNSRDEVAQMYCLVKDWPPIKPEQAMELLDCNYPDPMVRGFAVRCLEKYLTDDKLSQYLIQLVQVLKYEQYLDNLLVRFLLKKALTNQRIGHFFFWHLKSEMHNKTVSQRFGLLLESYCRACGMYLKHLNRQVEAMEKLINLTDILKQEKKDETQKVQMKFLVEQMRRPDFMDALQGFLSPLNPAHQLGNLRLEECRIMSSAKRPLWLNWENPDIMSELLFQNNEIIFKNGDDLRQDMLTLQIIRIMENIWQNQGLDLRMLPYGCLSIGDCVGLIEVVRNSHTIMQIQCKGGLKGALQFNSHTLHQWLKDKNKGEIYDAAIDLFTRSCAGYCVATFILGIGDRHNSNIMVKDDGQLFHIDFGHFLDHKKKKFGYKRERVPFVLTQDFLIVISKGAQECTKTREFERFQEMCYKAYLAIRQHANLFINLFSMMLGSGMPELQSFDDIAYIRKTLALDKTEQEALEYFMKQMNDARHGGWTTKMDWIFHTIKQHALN
# T4 sequence (P27986 whole entry partner): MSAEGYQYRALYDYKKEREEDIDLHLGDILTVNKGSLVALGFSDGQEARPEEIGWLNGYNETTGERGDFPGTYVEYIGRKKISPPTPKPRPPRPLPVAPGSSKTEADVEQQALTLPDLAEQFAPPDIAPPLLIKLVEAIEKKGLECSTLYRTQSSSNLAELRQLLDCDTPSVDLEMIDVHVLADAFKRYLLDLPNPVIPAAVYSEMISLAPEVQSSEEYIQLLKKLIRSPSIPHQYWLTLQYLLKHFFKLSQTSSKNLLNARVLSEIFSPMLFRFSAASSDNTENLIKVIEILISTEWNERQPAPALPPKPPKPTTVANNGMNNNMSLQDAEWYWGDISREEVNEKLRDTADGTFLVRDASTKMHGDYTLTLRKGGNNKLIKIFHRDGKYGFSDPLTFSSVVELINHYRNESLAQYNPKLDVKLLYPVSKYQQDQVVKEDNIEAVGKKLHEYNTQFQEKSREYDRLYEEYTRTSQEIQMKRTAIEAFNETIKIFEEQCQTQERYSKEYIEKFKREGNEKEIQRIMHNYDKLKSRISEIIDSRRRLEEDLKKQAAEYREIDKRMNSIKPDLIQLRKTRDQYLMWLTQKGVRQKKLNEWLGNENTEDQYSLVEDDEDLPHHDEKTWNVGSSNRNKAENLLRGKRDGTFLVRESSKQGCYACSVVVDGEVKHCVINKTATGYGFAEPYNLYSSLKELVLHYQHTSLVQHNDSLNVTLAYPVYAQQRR
# Summary of the method: as §1
# [6] = molecular target: T5, PKCδ(h) (Homo sapiens, UniProt Q05655)
# T5 construct: gene PRKCD
# T5 sequence (Q05655 whole entry): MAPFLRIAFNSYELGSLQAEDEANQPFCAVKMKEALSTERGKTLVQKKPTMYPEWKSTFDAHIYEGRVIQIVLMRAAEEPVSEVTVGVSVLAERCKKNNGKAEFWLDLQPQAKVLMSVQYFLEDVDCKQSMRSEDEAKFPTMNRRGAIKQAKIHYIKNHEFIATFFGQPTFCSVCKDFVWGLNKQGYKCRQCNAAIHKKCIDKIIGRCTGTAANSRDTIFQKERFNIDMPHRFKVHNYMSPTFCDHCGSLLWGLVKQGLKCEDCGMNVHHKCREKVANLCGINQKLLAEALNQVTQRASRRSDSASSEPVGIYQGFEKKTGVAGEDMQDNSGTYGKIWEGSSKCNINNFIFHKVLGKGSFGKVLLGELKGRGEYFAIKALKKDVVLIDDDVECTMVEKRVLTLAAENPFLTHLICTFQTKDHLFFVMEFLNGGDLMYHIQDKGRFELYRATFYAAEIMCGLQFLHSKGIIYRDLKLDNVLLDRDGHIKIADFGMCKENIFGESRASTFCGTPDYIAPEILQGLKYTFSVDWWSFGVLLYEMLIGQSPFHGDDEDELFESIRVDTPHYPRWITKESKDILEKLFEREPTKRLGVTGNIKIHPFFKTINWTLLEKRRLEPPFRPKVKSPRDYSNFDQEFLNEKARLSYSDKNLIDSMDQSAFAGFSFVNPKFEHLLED
# Summary of the method: as §1
# [7] = molecular target: T6, SGK2(h) (Homo sapiens, UniProt Q9HBY8)
# T6 sequence (Q9HBY8 1-367): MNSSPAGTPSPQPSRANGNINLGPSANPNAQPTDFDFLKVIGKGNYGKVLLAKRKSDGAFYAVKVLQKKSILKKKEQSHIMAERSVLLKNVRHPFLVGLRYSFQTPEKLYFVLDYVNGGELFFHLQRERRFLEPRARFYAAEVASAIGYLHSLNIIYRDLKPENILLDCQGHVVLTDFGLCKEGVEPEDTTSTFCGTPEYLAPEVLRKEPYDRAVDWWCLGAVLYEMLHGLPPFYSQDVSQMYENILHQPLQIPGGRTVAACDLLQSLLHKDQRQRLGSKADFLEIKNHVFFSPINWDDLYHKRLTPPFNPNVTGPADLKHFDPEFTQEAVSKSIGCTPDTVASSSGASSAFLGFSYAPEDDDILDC
# Summary of the method: as §1
# [8] = molecular target: T7, TSSK4(h) (Homo sapiens, UniProt Q6SA08)
# T7 sequence (Q6SA08 1-328): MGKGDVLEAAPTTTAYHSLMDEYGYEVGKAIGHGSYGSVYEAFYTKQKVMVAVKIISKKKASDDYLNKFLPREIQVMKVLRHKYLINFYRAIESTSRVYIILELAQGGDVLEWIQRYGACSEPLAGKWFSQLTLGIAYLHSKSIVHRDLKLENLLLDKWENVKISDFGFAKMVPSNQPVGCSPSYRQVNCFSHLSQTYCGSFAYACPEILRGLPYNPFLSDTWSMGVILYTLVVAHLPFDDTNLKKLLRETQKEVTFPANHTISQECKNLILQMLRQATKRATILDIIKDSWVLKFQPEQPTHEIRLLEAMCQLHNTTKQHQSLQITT
# Summary of the method: as §1
# [9] = read-out: Residual activity (%) Spautin-1 5aa
# [10] = read-out: Residual activity (%) 5as
# [11] = read-out: Residual activity (%) 5at
# [12] = read-out: Residual activity (%) 5ay
# Sequence of CDK1/cyclinB(h) (P06493 whole entry): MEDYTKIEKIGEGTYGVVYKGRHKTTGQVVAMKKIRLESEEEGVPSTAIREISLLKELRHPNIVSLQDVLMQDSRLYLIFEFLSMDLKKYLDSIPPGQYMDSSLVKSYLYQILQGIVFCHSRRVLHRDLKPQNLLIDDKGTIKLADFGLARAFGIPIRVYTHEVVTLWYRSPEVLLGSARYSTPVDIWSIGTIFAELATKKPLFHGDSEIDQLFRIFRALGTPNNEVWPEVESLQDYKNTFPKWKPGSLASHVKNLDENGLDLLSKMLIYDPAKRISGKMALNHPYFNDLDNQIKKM
# Sequence of CDK1/cyclinB(h) (P14635 whole entry partner): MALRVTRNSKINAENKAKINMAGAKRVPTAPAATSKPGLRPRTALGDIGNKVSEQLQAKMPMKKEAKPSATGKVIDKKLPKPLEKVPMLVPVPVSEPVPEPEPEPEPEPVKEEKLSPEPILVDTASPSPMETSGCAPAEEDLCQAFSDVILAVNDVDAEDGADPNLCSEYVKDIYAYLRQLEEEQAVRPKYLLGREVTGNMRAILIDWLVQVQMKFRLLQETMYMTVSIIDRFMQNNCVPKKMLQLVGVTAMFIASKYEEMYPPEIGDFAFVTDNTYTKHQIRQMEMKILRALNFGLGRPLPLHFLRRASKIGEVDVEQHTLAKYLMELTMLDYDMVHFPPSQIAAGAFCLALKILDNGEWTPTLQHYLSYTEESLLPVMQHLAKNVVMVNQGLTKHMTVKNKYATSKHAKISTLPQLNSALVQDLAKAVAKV
compound,measurement,setting,value
"Fc1ccc(CNc2ncnc3ccc(F)cc23)cc1 [5aa, 6-Fluoro-N-(4-fluorobenzyl)-4-Quinazolinamine]",remaining activity at 10 µM,[1]; [9],87%
same,remaining activity at 10 µM,[2]; [9],76%
same,remaining activity at 10 µM,[3]; [9],113%
same,remaining activity at 10 µM,[4]; [9],120%
same,remaining activity at 10 µM,[5]; [9],99%
same,remaining activity at 10 µM,[6]; [9],81%
same,remaining activity at 10 µM,[7]; [9],108%
same,remaining activity at 10 µM,[8]; [9],89%
"Fc1ccc(CCNc2ncnc3ccc(F)cc23)cc1 [5as, 6-Fluoro-N-[2-(4-Fluorophenyl)Ethyl]-4-Quinazolinamine]",remaining activity at 10 µM,[1]; [10],90%
same,remaining activity at 10 µM,[2]; [10],98%
same,remaining activity at 10 µM,[3]; [10],99%
same,remaining activity at 10 µM,[4]; [10],99%
same,remaining activity at 10 µM,[5]; [10],97%
same,remaining activity at 10 µM,[6]; [10],97%
same,remaining activity at 10 µM,[7]; [10],115%
same,remaining activity at 10 µM,[8]; [10],112%
"Fc1ccc2ncnc(NCCc3ccc(Cl)cc3)c2c1 [5at, N-[2-(4-Chlorophenyl)Ethyl]-6-Fluoro-4-Quinazolinamine]",remaining activity at 10 µM,[1]; [11],91%
same,remaining activity at 10 µM,[2]; [11],89%
same,remaining activity at 10 µM,[3]; [11],102%
same,remaining activity at 10 µM,[4]; [11],115%
same,remaining activity at 10 µM,[5]; [11],94%
same,remaining activity at 10 µM,[6]; [11],88%
same,remaining activity at 10 µM,[7]; [11],89%
same,remaining activity at 10 µM,[8]; [11],125%
"COc1ccc2ncnc(Nc3cccc(F)c3)c2c1 [5ay, N-(3-Fluorophenyl)-6-Methoxy-4-Quinazolinamine]",remaining activity at 10 µM,[1]; [12],72%
same,remaining activity at 10 µM,[2]; [12],100%
same,remaining activity at 10 µM,[3]; [12],108%
same,remaining activity at 10 µM,[4]; [12],103%
same,remaining activity at 10 µM,[5]; [12],96%
same,remaining activity at 10 µM,[6]; [12],75%
same,remaining activity at 10 µM,[7]; [12],103%
same,remaining activity at 10 µM,[8]; [12],134%
